In publication PMC7170330 (Journal of Enzyme Inhibition and Medicinal Chemistry, 2020):
“And” between values parts separate entries of the source, which are not always exact repeats. Identical values can stand only once. Like-named read-outs stand apart in the source and are kept apart here.

Experiments:
[1] = DPPH free radical scavenging activity; conditions: 0.05 mg/mL; mean ± SD, n = 3
Experimental: The free radical scavenging activity of standard antioxidants and synthesised sulphonamide derivatives was measured by DPPH using the Blois method[49]^,[50] 0.1 mM solution of DPPH^• in ethanol was prepared and 1 ml of this solution was added to 3 ml of the samples solution in ethanol at different concentrations. These solutions were vortexed thoroughly and kept in the darkness for 30 min. The absorbance values of this final mixture were measured at 517 nm. The reduced absorbance of the reaction mixture indicates higher free radical scavenging activity.
(§1) ABTS^•+ scavenging activity assay was performed according to Re method[51]^,[52]. The process of ABTS^•+ (2.0 mM) in water with potassium persulfate (K2S2O8) (2.45 mM) at room temperature in dark for 4 h. gave the ABTS cation radical. Dilution of ABTS^•+ was applied with sodium phosphate buffer (Na3PO4) (0.1 mol/l, pH 7.4) to measure the absorbance at 734 nm. The reactions of ABTS^•+ solution (1.0 ml) with samples solution in ethanol at different concentrations were performed. The inhibition was calculated at 734 nm for each concentration. The DPPH^• and ABTS^•+ free radical scavenging ability was calculated as the following equation: Radical scavenging activity (%) = [(Ac – As)/Ac] × 100. Where, Ac is the absorbance value of DPPH^• and ABTS^•+ before sample addition, while as is the absorbance value after sample addition.

[2] = ABTS radical cation scavenging activity; conditions: 0.2 mg/mL; mean ± SD, n = 3
Experimental: as §1

[3] = Fe3+ reducing power (FRAP, modified Oyaizu method); conditions: 0.2 mg/mL; 700 nm; mean ± SD, n = 3
Experimental: The power by metal-reducing of novel synthesised sulphonamide derivatives were determined by modified Oyaizu method[45]^,[46]. Different amounts of derivatives in 1 ml of ethanol were mixed with 0.5 ml of phosphate buffer (0.2 M, pH 6.6) and 0.5 ml of 1% potassium ferricyanide (K3Fe(CN)6). After the mixtures were incubated at 50 °C for 20 min, trichloroacetic acid (0.5 ml, 10%) was added to each mixture and centrifuged (at 1,008 G for 10 min.). The upper layers of the resulting solutions (0.5 ml) were first mixed with distilled water (0.5 ml) and then FeCl3 (0.1 ml, 0.1%) in the given order. absorbances were measured at 700 nm.

[4] = Cupric ion reducing assay (CUPRAC); conditions: 0.2 mg/mL; mean ± SD, n = 3
Experimental: The reduction capacity for cupric ions (Cu^2+) was determined by Cupric Ions Reducing Assay (CUPRAC) assay as previously described[47]^,[48]. A volume of 0.25 ml neocuproine (7.5 mM) in ethanol, 0.25 ml NH4Ac (1 M) and 0.25 ml CuCl2 (0.01 M) was mixed with sample at different amounts and standards.

hCA I = hCA I (Homo sapiens, UniProt P00915); experiment: biochemical; conditions: esterase activity, p-nitrophenylacetate substrate, Lineweaver-Burk, mean ± SD
hCA II = hCA II (Homo sapiens, UniProt P00918); experiment: hCA II esterase activity inhibition (p-nitrophenylacetate); format: biochemical; conditions: for Ki: esterase activity, p-nitrophenylacetate substrate, Lineweaver-Burk, mean ± SD; for Selectivity index KI (hCA II/hCA I): ratio of KI values
AChE = target: T1, AChE (Electrophorus electricus, UniProt O42275); experiment: biochemical; conditions: electric eel AChE, acetylthiocholine iodide/DTNB, 412 nm, mean ± SD
T1 construct: AChE activity isolated from electric eel (purchased); purchased; host or cells: isolated from electric eel
T1 sequence (O42275 24-633): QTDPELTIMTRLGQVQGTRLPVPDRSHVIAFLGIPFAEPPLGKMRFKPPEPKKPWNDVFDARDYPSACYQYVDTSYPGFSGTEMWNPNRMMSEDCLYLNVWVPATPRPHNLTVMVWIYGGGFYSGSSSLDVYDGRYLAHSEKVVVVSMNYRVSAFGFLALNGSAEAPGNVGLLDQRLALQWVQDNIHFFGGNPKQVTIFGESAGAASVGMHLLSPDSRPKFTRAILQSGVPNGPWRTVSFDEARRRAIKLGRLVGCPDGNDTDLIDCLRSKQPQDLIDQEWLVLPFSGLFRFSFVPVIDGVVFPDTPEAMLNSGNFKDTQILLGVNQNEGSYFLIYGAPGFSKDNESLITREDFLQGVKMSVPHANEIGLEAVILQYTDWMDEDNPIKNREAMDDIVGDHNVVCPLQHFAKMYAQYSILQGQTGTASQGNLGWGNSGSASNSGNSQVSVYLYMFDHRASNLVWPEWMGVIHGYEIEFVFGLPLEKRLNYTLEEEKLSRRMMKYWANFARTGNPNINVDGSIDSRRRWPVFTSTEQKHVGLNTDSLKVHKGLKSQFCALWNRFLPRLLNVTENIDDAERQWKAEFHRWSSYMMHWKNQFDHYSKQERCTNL
Experimental: AChE activity isolated from electric eel (purchased) was performed by a modified version of the Ellman method[63]. The measurement of AChE activity was performed using Acetylthiocholine (ATChI) iodide as the substrates and 5,5-Dithiobis(2-nitrobenzoic) acid (DTNB)[64]. The ATChI iodide as the substrates was monitored spectrophotometrically at 412 nm as in our previous assays[65]^,[66].

Chain of hCA I (P00915 whole entry): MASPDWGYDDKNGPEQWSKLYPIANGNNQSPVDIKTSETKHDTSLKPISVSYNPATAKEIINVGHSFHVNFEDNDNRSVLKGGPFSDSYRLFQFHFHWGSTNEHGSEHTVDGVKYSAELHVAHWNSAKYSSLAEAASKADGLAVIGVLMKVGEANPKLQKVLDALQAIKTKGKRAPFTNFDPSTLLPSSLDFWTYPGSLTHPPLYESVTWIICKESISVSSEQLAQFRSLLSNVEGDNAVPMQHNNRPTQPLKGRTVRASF

SMILES	DPPH radical scavenging activity [1]	ABTS radical scavenging activity [2]	Fe3+ reducing ability [3]	Cu2+ reducing ability [4]	Ki (hCA I; read-out: KI hCA I)	Ki (hCA II; read-out: KI hCA II)	Selectivity index KI (hCA II/hCA I) (hCA II)	Ki (AChE; read-out: KI AChE)	Ki (hCA II; KI hCA II)	Ki (AChE; KI AChE)	Ki (hCA I; KI hCA I)
COc1ccc(O)c(C(C)(C)C)c1 [BHA, butylated hydroxyanisole, reference compound]	21.7 ± 1.9%	79.5 ± 6.1%	1.23 ± 0.20 absorbance	2.28 ± 0.13 absorbance	–	–	–	–	–	–	–
Cc1cc(C(C)(C)C)c(O)c(C(C)(C)C)c1 [BHT, butylated hydroxytoluene, reference compound]	47.0 ± 5.2%	98.9 ± 9.1%	0.67 ± 0.01 absorbance	2.00 ± 0.11 absorbance	–	–	–	–	–	–	–
NS(=O)(=O)c1cccc(N=Cc2cccc(Br)c2O)c1 [Compound 1, 3-((3-Bromo-2-hydroxybenzylidene)amino)benzenesulfonamide]	18.7 ± 1.5%	18.4 ± 2.0%	0.15 ± 0.03 absorbance	0.22 ± 0.02 absorbance	59.7 ± 0.1 nM	16.4 ± 0.7 nM	0.27	24.3 ± 1 nM	–	–	–
NS(=O)(=O)c1cccc(N=Cc2cccc(Cl)c2O)c1 [Compound 2, 3-((3-Chloro-2-hydroxybenzylidene)amino)benzenesulfonamide]	8.2 ± 0.4%	15.1 ± 1.4%	0.27 ± 0.02 absorbance	0.26 ± 0.04 absorbance	66.6 nM and 66.5 nM	13.8 ± 0.1 nM	0.21	21 nM	–	–	–
NS(=O)(=O)c1ccc(N=Cc2cccc(Br)c2O)cc1 [Compound 3, 4-((3-Bromo-2-hydroxybenzylidene)amino)benzenesulfonamide]	5.9 ± 0.4%	7.3 ± 0.6%	0.11 ± 0.01 absorbance	0.28 ± 0.04 absorbance	80.5 ± 1.5 nM	26.3 ± 0.09 nM	0.33	34.9 ± 1.4 nM	–	–	–
NS(=O)(=O)c1ccc(N=Cc2cccc(Cl)c2O)cc1 [Compound 4, 4-((3-Chloro-2-hydroxybenzylidene)amino)benzenesulfonamide]	12.7 ± 0.9%	14.7 ± 0.9%	0.33 ± 0.02 absorbance	0.24 ± 0.05 absorbance	40.1 ± 0.6 nM	79.3 ± 0.2 nM	1.98	27.9 ± 1.3 nM	–	–	–
NS(=O)(=O)c1cccc(NCc2cccc(Br)c2O)c1 [Compound 5, 3-((3-Bromo-2-hydroxybenzyl)amino)benzenesulfonamide]	1.9 ± 0.09%	76.8 ± 8.1%	0.33 ± 0.03 absorbance	0.99 ± 0.07 absorbance	52.1 ± 0.7 nM	19.8 ± 1.2 nM	0.38	61.2 ± 4 nM	–	–	–
NS(=O)(=O)c1cccc(NCc2cccc(Cl)c2O)c1 [Compound 6, 3-((3-Chloro-2-hydroxybenzyl)amino)benzenesulfonamide]	9.2 ± 0.6%	77.7 ± 7.9%	0.47 ± 0.06 absorbance	0.93 ± 0.07 absorbance	101 ± 1.9 nM	29.1 ± 0.3 nM	0.29	25.7 ± 1 nM	–	–	–
NS(=O)(=O)c1ccc(NCc2cccc(Br)c2O)cc1 [Compound 7, 4-((3-Bromo-2-hydroxybenzyl)amino)benzenesulfonamide]	4.2 ± 0.4%	74.5 ± 6.4%	0.39 ± 0.04 absorbance	1.15 ± 0.08 absorbance	62.3 nM	–	0.16	–	10.1 nM	77 ± 9.3 nM	–
NS(=O)(=O)c1ccc(NCc2cccc(Cl)c2O)cc1 [Compound 8, 4-((3-Chloro-2-hydroxybenzyl)amino)benzenesulfonamide]	3.2 ± 0.6%	78.4 ± 7.7%	0.33 ± 0.07 absorbance	0.80 ± 0.05 absorbance	–	62 nM and 61.9 nM	1.93	–	–	31.4 ± 1.2 nM	32.1 nM
Cc1c(C)c2c(c(C)c1O)CCC(C)(C(=O)O)O2 (stereo not shown) [Trolox, reference compound]	57.8 ± 6.8%	94.4 ± 9.0%	1.27 ± 0.12 absorbance	1.81 ± 0.05 absorbance	–	–	–	–	–	–	–
